Laboratory results as given in US20080096807A1, “Cyclic vasoactive intestinal peptide receptor-2 agonists” (priority 2006, published 2008).
Numbered stars: 1 amine (or outer) side, 2 acyl side, 3 side chain; on linkers, the order of the positions; unused ones are H or OH. Bridge positions count the residues as written; N and C are the ends. Square brackets hold non-standard residues; d marks the D form. Peptide text beside a SMILES is read from it. ξ: configuration not given here. X1 = N=C(N)CNCC[C@H](N[*:1])C(=O)[*:2]; Thr(3ξ) = CC(O)[C@H](N)C(=O)O; αMeV = CC(C)[C@](C)(N)C(=O)O; Nle = CCCC[C@H](N)C(=O)O

T1: VPAC2 receptor (Homo sapiens, UniProt P41587)
T1 construct: The human T-lymphoid cell line Sup-Ti, which expresses the VPAC2 receptor; host or cells: Sup-T1 (Sup-Ti [sic]) human T-lymphoid cell line
T1 sequence (P41587 24-438): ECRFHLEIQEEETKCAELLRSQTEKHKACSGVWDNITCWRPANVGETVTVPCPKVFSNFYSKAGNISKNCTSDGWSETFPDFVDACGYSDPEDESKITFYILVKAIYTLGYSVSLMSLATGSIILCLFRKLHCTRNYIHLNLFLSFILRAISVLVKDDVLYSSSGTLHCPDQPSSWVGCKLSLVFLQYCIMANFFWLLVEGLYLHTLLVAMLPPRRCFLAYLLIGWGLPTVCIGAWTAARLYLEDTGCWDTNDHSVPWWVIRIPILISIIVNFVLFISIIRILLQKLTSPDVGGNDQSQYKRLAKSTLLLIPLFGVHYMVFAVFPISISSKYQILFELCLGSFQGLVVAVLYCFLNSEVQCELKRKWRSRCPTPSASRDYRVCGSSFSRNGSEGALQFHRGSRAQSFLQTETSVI

T2: human neutrophil elastase (Homo sapiens, UniProt P08246)
T2 sequence (P08246 30-247 limits assumed): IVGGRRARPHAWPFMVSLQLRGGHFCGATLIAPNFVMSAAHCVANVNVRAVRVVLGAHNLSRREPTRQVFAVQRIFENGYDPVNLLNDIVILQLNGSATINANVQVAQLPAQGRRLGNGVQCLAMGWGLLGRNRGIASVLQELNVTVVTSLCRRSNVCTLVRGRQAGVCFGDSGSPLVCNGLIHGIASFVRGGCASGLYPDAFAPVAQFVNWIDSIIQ

T3: VPAC2 receptor (human, UniProt P41587)
T3 sequence: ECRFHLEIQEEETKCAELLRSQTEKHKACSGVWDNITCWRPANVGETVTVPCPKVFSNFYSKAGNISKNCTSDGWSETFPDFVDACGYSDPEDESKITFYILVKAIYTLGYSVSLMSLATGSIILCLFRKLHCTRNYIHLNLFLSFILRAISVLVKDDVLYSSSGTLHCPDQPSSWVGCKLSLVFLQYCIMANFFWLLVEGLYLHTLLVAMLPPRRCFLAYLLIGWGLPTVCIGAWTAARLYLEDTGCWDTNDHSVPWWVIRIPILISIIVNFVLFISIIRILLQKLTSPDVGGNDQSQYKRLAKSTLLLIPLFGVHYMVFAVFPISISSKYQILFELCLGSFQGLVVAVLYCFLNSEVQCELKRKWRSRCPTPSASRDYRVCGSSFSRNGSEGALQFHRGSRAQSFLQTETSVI

B1: Ac-His-Ala-Asp-Ala-MeVal-Phe-Thr-Glu-Asn-Tyr-Thr-Lys-Leu-Arg-Lys-Gln-Nle-Ala-Ala-Lys-Lys-Tyr-Leu-Asn-Asp-Leu-Lys-Lys-Gly-Gly-Thr-NH2 (peptide)
peptide: Ac-HADA[αMeV]FTENYTKLRKQ[Nle]AAKKYLNDLKKGGT-NH2
modifications: lactam 21-25
SMILES: CCCC[C@H](NC(=O)[C@H](CCC(N)=O)NC(=O)[C@H](CCCCN)NC(=O)[C@H](CCCNC(=N)N)NC(=O)[C@H](CC(C)C)NC(=O)[C@H](CCCCN)NC(=O)[C@@H](NC(=O)[C@H](Cc1ccc(O)cc1)NC(=O)[C@H](CC(N)=O)NC(=O)[C@H](CCC(=O)O)NC(=O)[C@@H](NC(=O)[C@H](Cc1ccccc1)NC(=O)[C@@](C)(NC(=O)[C@H](C)NC(=O)[C@H](CC(=O)O)NC(=O)[C@H](C)NC(=O)[C@H](Cc1c[nH]cn1)NC(C)=O)C(C)C)[C@@H](C)O)[C@@H](C)O)C(=O)N[C@@H](C)C(=O)N[C@@H](C)C(=O)N[C@@H](CCCCN)C(=O)N[C@H]1CCCCNC(=O)C[C@@H](C(=O)N[C@@H](CC(C)C)C(=O)N[C@@H](CCCCN)C(=O)N[C@@H](CCCCN)C(=O)NCC(=O)NCC(=O)N[C@H](C(N)=O)[C@@H](C)O)NC(=O)[C@H](CC(N)=O)NC(=O)[C@H](CC(C)C)NC(=O)[C@H](Cc2ccc(O)cc2)NC1=O
B2: Ac-His-Ser-Asp-Ala-MeVal-Phe-Thr-Glu-Asn-Tyr-thr-Lys-Leu-Arg-Lys-Gln-Nle-Ala-Ala-Lys-Lys-Tyr-Leu-Asn-Asp-Leu-Leu-Lys-Gly-Gly-Thr-NH2 (peptide)
peptide: Ac-HSDA[αMeV]FTENYTKLRKQ[Nle]AAKKYLNDLLKGGT-NH2
modifications: lactam 21-25; not fully specified (residue 11); printed as Ac-His-Ser-Asp-Ala-MeVal-Phe-Thr-Glu-Asn-Tyr-thr-Lys-Leu-Arg-Lys-Gln-Nle-Ala-Ala-Lys-Lys-Tyr-Leu-Asn-Asp-Leu-Leu-Lys-Gly-Gly-Thr-NH2
B3: Ac-His-Ser-Asp-Ala-MeVal-Phe-Thr-Glu-Asn-Tyr-Thr-Lys-Leu-Arg-Lys-Arg-Nle-Ala-Ala-Lys-Lys-Tyr-Leu-Asn-Asp-Leu-Lys-Lys-Gly-Gly-Thr-NH2 (peptide)
peptide: Ac-HSDA[αMeV]FTENYTKLRKR[Nle]AAKKYLNDLKKGGT-NH2
modifications: lactam 21-25
SMILES: CCCC[C@H](NC(=O)[C@H](CCCNC(=N)N)NC(=O)[C@H](CCCCN)NC(=O)[C@H](CCCNC(=N)N)NC(=O)[C@H](CC(C)C)NC(=O)[C@H](CCCCN)NC(=O)[C@@H](NC(=O)[C@H](Cc1ccc(O)cc1)NC(=O)[C@H](CC(N)=O)NC(=O)[C@H](CCC(=O)O)NC(=O)[C@@H](NC(=O)[C@H](Cc1ccccc1)NC(=O)[C@@](C)(NC(=O)[C@H](C)NC(=O)[C@H](CC(=O)O)NC(=O)[C@H](CO)NC(=O)[C@H](Cc1c[nH]cn1)NC(C)=O)C(C)C)[C@@H](C)O)[C@@H](C)O)C(=O)N[C@@H](C)C(=O)N[C@@H](C)C(=O)N[C@@H](CCCCN)C(=O)N[C@H]1CCCCNC(=O)C[C@@H](C(=O)N[C@@H](CC(C)C)C(=O)N[C@@H](CCCCN)C(=O)N[C@@H](CCCCN)C(=O)NCC(=O)NCC(=O)N[C@H](C(N)=O)[C@@H](C)O)NC(=O)[C@H](CC(N)=O)NC(=O)[C@H](CC(C)C)NC(=O)[C@H](Cc2ccc(O)cc2)NC1=O

Legend:
[1] = target: T1, VPAC2 receptor; experiment: Sup-T1 cAMP agonist assay; format: cell-based; settings: human T-lymphoid cell line Sup-T1 expressing VPAC2 receptor; cAMP EIA; 5 min at room temperature; read-out: Sup-T1 cAMP EC50
Procedure, shortened: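 Sup-T1 human T-lymphoid cells with endogenous VPAC2 (RPMI 1640, 25 mM HEPES, 10% FBS) were plated at 4×10^4 cells/well and exposed to compound for 5 min at room temperature. After lysis, cAMP was measured by enzyme immunoassay. EC50 came from a sigmoidal fit of 7-concentration dose-response data.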

[2] = target: T2, human neutrophil elastase; experiment: Peptide stability to neutrophil elastase (RP HPLC ESI MS); settings: halftime with human neutrophil elastase 1 to 2 μg/mL in PBS, ambient temperature, normalized to halftime of the reference standard
Procedure: The proteolytic stabilities of peptide analogs were established with reversed phase high pressure liquid chromatography (RP HPLC) electrospray ionization mass spectrometry (ESI MS). Peptide analogs were incubated with human neutrophile elastase and the quantity of undigested analogs was determined by ESI MS at appropriate time points. Multiple peptide analogs could be included in one experiment as long as they could be differentiated by HPLC retention time and/or by molecular weight. Ac-His Ac-[sequence]Nle-[sequence]NH2 was used in all experiments as a control and as a reference standard. The simultaneous use of multiple peptide analogs together with a reference standard allowed for compensation for variations in the proteolytic fidelity of the enzyme over the multiple experiments. Integrated ion currents obtained for the individual undigested peptide were used for quantitation. For calculation of halftime first-order kinetic behavior was assumed and all calculations were normalized to the halftime of the reference standard.
Peptide stock solutions were prepared in water to a concentration of 2.5 mg/mL. Unless in use, all stock solutions were kept at −20° C. […] Concentrations of the peptide analogs were adjusted accordingly. In order to do the proteolytic digestion, peptides were dissolved in phosphate buffered saline (PBS) to a concentration of 0.1 mg/mL. As many as six different peptide analogs were mixed into one 50 μL reaction volume. The reference standard was added to all experiments as a reference and internal standard. Elastase (Human Neutrophil, Calbiochem, Cat # 324681) was added from an elastase stock solution to a concentration of 1 to 2 μg/mL. Different amounts of the enzyme were chosen to compensate for the differences in the proteolytic stabilities of the peptide analogs. Previously, a stock solution of elastase was prepared in water at a concentration of 1 mg/mL. Small aliquots of the enzyme stock solution were kept at −20° C. to better maintain the enzyme activity by limiting the number of thaw and freeze cycles.
The digestion was done at ambient temperature in an autosampler tube within the autosampler of the HPLC system (Agilent 1100 Series). For a time course, 5 μL aliquots were injected in 70 minute intervals onto the reversed phase HPLC column (Phenomenex, Luna C18, 3μ, 100 ↑, 150×2.00 mm). For the starting time point an aliquot was injected just prior to the addition of the proteolytic enzyme. A total of eight time points could be recorded from one experiment, including the starting point. Peptides were separated on the reversed phase column with a 50 minute gradient of 5% to 30% organic phase. The aqueous phase was 0.05% (v/v) of trifluoroacetic acid in water and the organic one was 0.045% (v/v) of trifluoroacetic acid in acetonitrile. Absorbances were recorded at 214 and 280 nm respectively. All of the column effluent was introduced into the turbo V source of the electrospray ionization mass spectrometer (ABI 4000 QTrap LC/MS/MS System). Mass spectra were acquired in Q3MS mode in a mass range to include all triply charged ions of the non degraded peptide analogs. Care was taken to assure that peptide analogs could clearly be differentiated either by the chromatographic retention time or by the difference in molecular weight. Relative quantities of the respective undigested peptide analog were calculated from the integrated total ion current. A window of 2.5 Da was chosen and the manufacturer's software was used to integrate the individual ion currents. The overall halftime of an individual peptide analog was calculated by assuming first-order kinetic behavior and was normalized with respect to the halftime of the reference standard.

[3] = test system: LPS-induced lung inflammation in male C57BL/6 mice; experiment: LPS-induced lung inflammation in male C57BL/6 mice (BAL neutrophilia); format: in vivo; settings: Dose 0.01%, BAL fluid neutrophilia
Procedure: C57bl/6 mice are pretreated with vehicle or drug prior to an aerosol expose to lipopolysacchride (LPS, 500 μg/ml in sterile saline) for 15-30 minutes. The aerosol is generated by a Pari Ultra neb jet nebulizer, the outlet of which is connected to a small clear plastic chamber [H×W×D, 10.7×25.7×11 cm (4×10×4.5 in)] containing the animals. Bronchoalveolar lavage (BAL) is performed 24 hr later to determine the intensity of cell inflammation. BAL procedure is performed as described below.
Mice are pretreated with vehicle or drug prior to an intranasal administration of lipopolysacchride (0.05-0.3 mg/kg in sterile saline; 50 μl total volume, 25 μl/nostril). Intranasal administration is performed by presenting small droplets of the dosing solution at the nostril using a 25-50 μl eppendorff pipet. BAL is performed 3 to 24 h post LPS challenged as described above to determine the intensity of cell inflammation.
24 h following LPS exposure, animals are anesthetized with pentobarbital (80-100 mg/kg, i.p.), ketamine/xyzaline (80-120 mg/kg/2-4 mg/kg, i.p.) or urethane (1.5-2.4 g/kg, i.p.); and through a small midline neck incision (15-20 mm), the trachea is exposed and cannulated with 20-gauge tubing adapter. Lungs are lavaged with 2×1 ml sterile Hank's balanced salt solution without Ca++ and Mg++(HBSS). Lavage fluid is recovered after 30 sec by gentle aspiration and pooled for each animal. Samples are then centrifuged at 2000 rpm for 10 minutes at 5° C. Supernatant is aspirated, and red blood cells are lysed from the resulting pellet with 0.5 ml distilled water for 30 sec before restoring osmolarity to the remaining cells by the addition of 5 ml of HBSS. Samples are recentrifuged at 2000 rpm for 10 minutes at 5° C. and supernatant aspirated. The resulting pellet is resuspended in 1 ml of HBSS. Total cell number is determined by Trypan Blue (Sigma Chemical, St. Louis, Mo.) exclusion from an aliquot of cell suspension using a hemocytometer or coulter counter. For differential cell counts, an aliquot of the cell suspension is centrifuged in a Cytospin (5 min, 1300 rpm; Shandon Southern Instruments, Sewickley, Pa.) and the slides fixed and stained with a modified Wright's stain (Hema 3 stain kit, Fisher Scientific). Standard morphological criteria is used in classifying at least 300 cells under light microscopy. Data in Table 3 is expressed as BAL cells×10^4/animal for neutrophils and total cells, or percent inhibition of the LPS induced BAL fluid neutrophilia response.

[4] = target: T3, VPAC2 receptor; experiment: cell-based or functional assay

Molecule | EC50 [1] | Relative elastase stability [2] | Inhibition of LPS-induced neutrophilia [3] | Sup-T1 cAMP EC50 [4]
CCCC[C@H](NC(=O)[C@H](CCNCC(=N)N)NC(=O)[C@H](CCCCN)NC(=O)[C@H](CCCNC(=N)N)NC(=O)[C@H](CC(C)C)NC(=O)[C@H](CCCCN)NC(=O)[C@@H](NC(=O)[C@H](Cc1ccc(O)cc1)NC(=O)[C@H](CC(N)=O)NC(=O)[C@H](CCC(=O)O)NC(=O)[C@@H](NC(=O)[C@H](Cc1ccccc1)NC(=O)[C@H](CO)NC(=O)[C@H](C)NC(=O)[C@H](CC(=O)O)NC(=O)[C@H](CO)NC(=O)[C@H](Cc1c[nH]cn1)NC(C)=O)C(C)O)C(C)O)C(=O)N[C@@H](C)C(=O)N[C@@H](C)C(=O)N[C@@H](CCCCN)C(=O)N[C@H]1CCCCNC(=O)C[C@@H](C(=O)N[C@@H](CC(C)C)C(=O)N[C@@H](CCCCN)C(=O)N[C@@H](CCCCN)C(=O)NCC(=O)NCC(=O)N[C@H](C(N)=O)C(C)O)NC(=O)[C@H](CC(N)=O)NC(=O)[C@H](CC(C)C)NC(=O)[C@H](Cc2ccc(O)cc2)NC1=O (stereo partly drawn) [Example 13] (Ac-HSDASF[Thr(3ξ)]ENY[Thr(3ξ)]KLRK[X1][Nle]AAKKYLNDLKKGG[Thr(3ξ)]-NH2; lactam 21-25) | 17.6 nM | 1.7 | ++ (++ >30%) | –
CCCC[C@H](NC(=O)[C@H](CCCNC(=N)N)NC(=O)[C@H](CCCCN)NC(=O)[C@H](CCCNC(=N)N)NC(=O)[C@H](CC(C)C)NC(=O)[C@H](CCCCN)NC(=O)[C@@H](NC(=O)[C@H](Cc1ccc(O)cc1)NC(=O)[C@H](CC(N)=O)NC(=O)[C@H](CCC(=O)O)NC(=O)[C@@H](NC(=O)[C@H](Cc1ccccc1)NC(=O)[C@H](CO)NC(=O)[C@H](C)NC(=O)[C@H](CC(=O)O)NC(=O)[C@H](CO)NC(=O)[C@H](Cc1c[nH]cn1)NC(C)=O)C(C)O)C(C)O)C(=O)N[C@@H](CCC(=O)O)C(=O)N[C@@H](C)C(=O)N[C@@H](CCCCN)C(=O)N[C@H]1CCCCNC(=O)C[C@@H](C(=O)N[C@@H](CC(C)C)C(=O)N[C@@H](CCCCN)C(=O)N[C@@H](CCCCN)C(=O)NCC(=O)NCC(=O)N[C@H](C(N)=O)C(C)O)NC(=O)[C@H](CC(N)=O)NC(=O)[C@H](CC(C)C)NC(=O)[C@H](Cc2ccc(O)cc2)NC1=O (stereo partly drawn) [Example 15] (Ac-HSDASF[Thr(3ξ)]ENY[Thr(3ξ)]KLRKR[Nle]EAKKYLNDLKKGG[Thr(3ξ)]-NH2; lactam 21-25) | 117 nM | 4.8 | + (+ 10-30%) | –
CCCC[C@H](NC(=O)[C@H](CCCNC(=N)N)NC(=O)[C@H](CCCCN)NC(=O)[C@H](CCCNC(=N)N)NC(=O)[C@H](CC(C)C)NC(=O)[C@H](CCCCN)NC(=O)[C@@H](NC(=O)[C@H](Cc1ccc(O)cc1)NC(=O)[C@H](CC(N)=O)NC(=O)[C@H](CCC(=O)O)NC(=O)[C@@H](NC(=O)[C@H](Cc1ccccc1)NC(=O)[C@H](CO)NC(=O)[C@H](C)NC(=O)[C@H](CC(=O)O)NC(=O)[C@H](C)NC(=O)[C@H](Cc1c[nH]cn1)NC(C)=O)C(C)O)C(C)O)C(=O)N[C@@H](CCC(=O)O)C(=O)N[C@@H](C)C(=O)N[C@@H](CCCCN)C(=O)N[C@H]1CCCCNC(=O)C[C@@H](C(=O)N[C@@H](CC(C)C)C(=O)N[C@@H](CCCCN)C(=O)N[C@@H](CCCCN)C(=O)NCC(=O)NCC(=O)N[C@H](C(N)=O)C(C)O)NC(=O)[C@H](CC(N)=O)NC(=O)[C@H](CC(C)C)NC(=O)[C@H](Cc2ccc(O)cc2)NC1=O (stereo partly drawn) [Example 17] (Ac-HADASF[Thr(3ξ)]ENY[Thr(3ξ)]KLRKR[Nle]EAKKYLNDLKKGG[Thr(3ξ)]-NH2; lactam 21-25) | 23.3 nM | 4.6 | + (+ 10-30%) | –
B1 | – | – | – | 4.75 nM
B2 | – | – | – | 9.45 nM
B3 | – | – | – | 10.5 nM
